This data set addresses T1, dopamine transporter (Homo sapiens, UniProt Q01959).
T1 construct: dynamic SPECT in Parkinson's subjects and similarly aged healthy control subjects; from tissue; host or cells: striatum (caudate and putamen) of living subjects, imaged in vivo
Nature of the data set: 123I Altropane dynamic SPECT imaging of striatal dopamine transporter in Parkinson's disease and healthy control subjects. Conditions: for Mean % test/retest difference: 15 PD subjects; for Total striatal binding ratio, Ratio (3-6): individual PD scans (paired test/retest), mean of scans 3-6, about 30 min from about 15 min post injection; for Peak Striatal:Occipital Ratio (peak SBR): single scan with highest uptake, 8 mCi i.v. Type of data set: in vivo. The source says: The following example summarizes single photon emission computed tomographic (SPECT) image acquisition, analysis methods and results for Parkinson's disease research participants and healthy controls participating in an ^123I Altropane SPECT imaging study. The experiment is an open label study evaluating time-activity curves and striatal dopamine transporter occupancy over the first hour post injection of ^123I Altropane using temporally well-resolved dynamic SPECT in Parkinson's subjects and similarly aged healthy control subjects. In addition, for the PD subjects, a second injection and scan is performed on each subject on a separate test days to evaluate the test/retest reproducibility data for both visual and quantitative analyses.
Fifteen idiopathic Parkinson's disease subjects are recruited through local advertising and word-of-mouth for enrollment in the study. Imaging is performed at Molecular NeuroImaging, LLC in New Haven, Conn., USA. ^123I Altropane is studied under the auspices of a physician-sponsored IND # 76,024, Dr. J. Seibyl physician sponsor using test article provided by MDS Nordion, Inc (Vancouver, BC, Canada). All subjects are provided informed consent prior to any study procedures. All fifteen subjects completed two separate injection and SPECT scan sessions with approximately 296 mBq (8 mCi) of ^123I Altropane. Subjects undergo motor ratings using the Unified Parkinson's Disease Rating Scale (UPDRS) following overnight period without anti-Parkinson medication administered by a movement disorder specialist. No PD subjects are terminated prior to achieving the study endpoint.
Twelve healthy control subjects are recruited for participation in a single scan session with ^123I Altropane using the identical SPECT image acquisition protocol as the PD subjects. Healthy subjects are evaluated by a movement disorder specialist to confirm the absence of neurologic illness.
SPECT scans are acquired for 60 minutes following the intravenous injection with 296 mBq (8.0 mCi) of ^123I Altropane. A series of dynamic SPECT scans are obtained as five scans at 6 minutes per acquisition followed by three scans at 10 minutes per acquisition. The subject remain in the camera for the duration of the acquisition. Each SPECT study is acquired on a Philips PRISM 3000XP triple-headed SPECT camera (Cleveland, Ohio, USA) fitted with fan-beam collimators. Each head rotates 360 degrees, sampling every 3 degrees for a total of 120 raw projection images per head. Projection data were collected in a 128×128 matrix within a symmetric energy window centered at 159 kEv (+/−10%).
Data are re-constructed using filtered back projection and a simple ramp filter followed by a post hoc (3-D) standardized low pass filter. Attenuation correction was performed applying a Chang 0 correction and a mu of 0.11 cm^−1 using a standard or custom automated software package. Regions of interest (ROIs) are placed in the 3-head data with individual ROI sampling of the left and right caudate and putamen and an occipital background region. The ROIs were then applied to all images in the injection session (total of 24=8 time points×3 head conditions (1, 1&2, 1&2&3). To check for head movement within each scan session, five external skin fiducial markers containing 1 μCi of ^123I were place along the canthomeatal line (2 right side, 3 left side) prior to each SPECT scan. Total counts within the ROI, total volume, and count density (counts/voxel) were extracted from each scan and logged in a data spreadsheet for determination of striatal uptake ratios (SBR) defined as the density of counts (counts per voxel per minute) in the striatal region divided by the density of counts in the occipital background region. The mean striatal SBR scores were calculated as the mean of the left and right caudate and putamen SBR scores. Since sampling in striatal subregions used the identical size ROI, there was equal contribution from left and right caudate and putamen to the mean SBR. […]

Each structure is given as a SMILES string. Several values for one entry are separate records, joined by “and”; a condition that tells them apart may be missing. Equal entries are not always repeated. A value given as a limit tells only on which side of the number the result lay.

T1 sequence (Q01959 whole entry): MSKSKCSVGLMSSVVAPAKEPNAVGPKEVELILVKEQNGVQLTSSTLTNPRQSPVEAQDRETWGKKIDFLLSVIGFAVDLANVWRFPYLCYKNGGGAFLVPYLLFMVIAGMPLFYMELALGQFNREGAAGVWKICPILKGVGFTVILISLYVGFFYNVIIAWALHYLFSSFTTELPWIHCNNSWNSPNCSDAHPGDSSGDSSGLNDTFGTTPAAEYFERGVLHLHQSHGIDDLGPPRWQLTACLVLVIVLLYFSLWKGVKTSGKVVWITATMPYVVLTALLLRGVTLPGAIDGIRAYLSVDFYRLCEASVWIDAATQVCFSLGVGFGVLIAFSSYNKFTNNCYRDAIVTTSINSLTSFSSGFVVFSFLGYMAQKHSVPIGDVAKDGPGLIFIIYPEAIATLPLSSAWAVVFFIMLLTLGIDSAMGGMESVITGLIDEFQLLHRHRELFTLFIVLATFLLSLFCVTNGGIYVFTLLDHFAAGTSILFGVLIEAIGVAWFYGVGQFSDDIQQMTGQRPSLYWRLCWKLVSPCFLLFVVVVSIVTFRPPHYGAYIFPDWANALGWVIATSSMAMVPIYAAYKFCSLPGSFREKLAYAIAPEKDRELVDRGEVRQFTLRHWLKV

For the compound `COC(=O)C1C(c2ccc(F)cc2)CC2CCC1N2C/C=C/I` (stereo not drawn) [123I Altropane, 2β-carbomethoxy-3β-(4′-flurophenyl)-N-(3-iodo-E-allyl) nortropane], the “Mean % test/retest difference” value is, setting by setting: (1 head) 4.94%; (2 heads) 5.11%; (3 heads) 5.14%. The “time post injection of relative stability of binding ratios” value (a PD and a control subject, FIG. 3) was “about 15 minutes”. For the same compound, the “time post injection by which washout rates from striatum and occipital background are similar (stable striatal binding ratio)” value (all subjects) lay within 20 to 30 min. In addition, the “time of peak striatal count densities post-injection” value (controls and PD subjects, bolus injection) was 10 min. The “Total striatal binding ratio, Ratio (3-6)” value reads like this: (1 head) 1.29 (4×) and 1.23 and 1.30 (2×) and 1.26 (3×) and 1.25 (3×) and 1.22 (2×) and 1.37 (2×) and 1.40 and 1.48 and 1.20 (2×) and 1.16 and 1.32 and 1.35 and 1.21 (2×) and 1.12 and 1.28 and 1.17 and 1.24; (2 heads) 1.29 and 1.27 (3×) and 1.35 and 1.37 and 1.31 and 1.32 (4×) and 1.30 and 1.36 and 1.43 and 1.47 and 1.60 and 1.25 and 1.21 and 1.19 and 1.38 (2×) and 1.40 and 1.24 (2×) and 1.12 and 1.26 and 1.33 (2×) and 1.20 and 1.45; (3 heads) 1.32 and 1.30 (2×) and 1.39 and 1.41 and 1.33 and 1.36 (2×) and 1.35 (2×) and 1.38 and 1.45 and 1.56 and 1.70 and 1.37 (2×) and 1.28 and 1.23 and 1.20 and 1.42 (2×) and 1.44 and 1.26 and 1.15 and 1.29 and 1.31 and 1.22 and 1.50 and 1.40 and 1.27. For the same compound, the “Peak Striatal:Occipital Ratio (peak SBR)” value is, setting by setting: (individual PD subjects, 1 head reconstruction) 1.29 (2×) and 1.24 (2×) and 1.22 and 1.35 and 1.41 (2×) and 1.52 and 1.43 and 1.26 (2×) and 1.32 and 1.33 (2×); (individual PD subjects, 2 head reconstruction) 1.28 (2×) and 1.27 (2×) and 1.25 and 1.41 and 1.46 and 1.66 and 1.53 and 1.26 and 1.36 and 1.32 and 1.43 and 1.37 and 1.39; (individual PD subjects, 3 head reconstruction) 1.30 (2×) and 1.25 and 1.44 (2×) and 1.74 and 1.60 and 1.33 and 1.34 and 1.45 (2×) and 1.35 and 1.39 and 1.28 and 1.43; (individual healthy controls, 1 head reconstruction) 1.49 and 1.57 and 1.79 and 1.47 and 1.56 and 1.63 and 1.64 and 1.86 and 1.52 and 1.50 and 1.66 and 1.51; (individual healthy controls, 2 head reconstruction) 1.66 and 1.67 and 1.95 and 1.62 and 1.68 and 1.79 and 1.77 and 2.10 and 1.59 and 1.55 and 1.84 and 1.61; (individual healthy controls, 3 head reconstruction) 1.81 (2×) and 1.79 and 2.06 and 1.69 and 1.90 and 1.93 and 2.30 and 1.71 and 1.68 and 1.86 and 1.77. In addition, the “mean SBR (peak Striatal:Occipital Ratio)” value (mean of 12 healthy controls, 1 head) is on record as 1.60; the “mean SBR (peak Striatal:Occipital Ratio)” value (mean of 12 healthy controls, 2 head) is 1.74; the “mean SBR (peak Striatal:Occipital Ratio)” value (mean of 12 healthy controls, 3 head) is reported as 1.86; the “mean SBR (peak Striatal:Occipital Ratio)” value (mean of 15 PD subjects, 1 head) came out at 1.33; the “mean SBR (peak Striatal:Occipital Ratio)” value (mean of 15 PD subjects, 2 head) is given as 1.37; the “mean SBR (peak Striatal:Occipital Ratio)” value (mean of 15 PD subjects, 3 head) came to 1.41. Where the note is “most subjects, striatal and occipital regions”, the elimination from brain entry is “rapid elimination”. In addition, the “time of peak SBR post injection” value (one and two head scenarios) was at least 15 min.
